Experimental data reported in patent publication US20150291598A1 (NOVARTIS AG, priority 2012, published 2015).

test system: P. falciparum (NF54 or 3D7 strain); assay: Assay for P. falciparum proliferation in infected human blood cells (SYBR Green); assay type: cell-based, Plasmodium falciparum; conditions: Plasmodium falciparum, Erythrocyte, 72 h, NF54 or 3D7 infected human erythrocytes, 72 hours; read-out: EC50 (nM), inhibitory efficacy in delaying P. falciparum proliferation in infected human blood cells
How it was run: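 NF54 or 3D7 parasites in O+ human erythrocytes at 2.5% hematocrit and 0.3% parasitemia final, exposed to compounds 72 h at 37 °C under 93% N2/4% CO2/3% O2.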

Row | SMILES | EC50
1 | CN(C(=O)c1cn2c(-c3ccc(C#N)cc3)cnc2cn1)c1ccc(C#N)cc1 [Compound 377, N,3-bis(4-cyanophenyl)-N-methylimidazo[1,2-a]pyrazine-6-carboxamide] | 8190 nM
2 | Cc1cc(-c2cnc3cnc(C(=O)N(C)c4ccc(C#N)cc4)cn23)ccn1 [Compound 378, N-(4-cyanophenyl)-N-methyl-3-(2-methylpyridin-4-yl)imidazo[1,2-a]pyrazine-6-carboxamide] | > 7030 nM
3 | CN(C(=O)c1cn2c(-c3ccc4c(c3)CC(=O)N4)cnc2cn1)c1ccc(Cl)nc1 [Compound 379, N-(6-chloropyridin-3-yl)-N-methyl-3-(2-oxo-2,3-dihydro-1H-indol-5-yl)imidazo[1,2-a]pyrazine-6-carboxamide] | 6260 nM
4 | CN(C(=O)c1cn2c(-c3cnc(N)nc3)cnc2cn1)c1ccc(C#N)cc1 [Compound 380, 3-(2-aminopyrimidin-5-yl)-N-(4-cyanophenyl)-N-methylimidazo[1,2-a]pyrazine-6-carboxamide] | 4500 nM
5 | C=Cc1cnc2cnc(C(=O)N(C)c3ccc(Cl)nc3)cn12 [Compound 381, N-(6-chloropyridin-3-yl)-3-ethenyl-N-methylimidazo[1,2-a]pyrazine-6-carboxamide] | 5110 nM
6 | CN(C(=O)c1cn2c(-c3ccc(C(F)(F)F)cc3)cnc2cn1)c1ccc(C2CCC2)cn1 [Compound 382, N-(5-cyclobutylpyridin-2-yl)-N-methyl-3-[4-(trifluoromethyl)phenyl]imidazo[1,2-a]pyrazine-6-carboxamide] | 8400 nM
7 | O=C(NCc1ccc(N2CCOCC2)cc1)c1cn2c(-c3ccc(C(F)(F)F)cc3)cnc2cn1 [Compound 383, N-{[4-(morpholin-4-yl)phenyl]methyl}-3-[4-(trifluoromethyl)phenyl]imidazo[1,2-a]pyrazine-6-carboxamide] | > 10000 nM
8 | CN(C(=O)c1cn2c(-c3ccc(C(F)(F)F)cc3)cnc2cn1)c1ccc(C(C)(C)C)nc1 [Compound 384, N-(6-tert-butylpyridin-3-yl)-N-methyl-3-[4-(trifluoromethyl)phenyl]imidazo[1,2-a]pyrazine-6-carboxamide] | 6620 nM
9 | CN(C(=O)c1cn2c(-c3ccncc3)cnc2cn1)c1ccc(C#N)cc1 [Compound 385, -(4-cyanophenyl)-N-methyl-3-(pyridin-4-yl)imidazo[1,2-a]pyrazine-6-carboxamide] | > 10000 nM
10 | N#Cc1ccc(N(CCN)C(=O)c2cn3c(-c4ccc(C(F)(F)F)cc4)cnc3cn2)cc1 [Compound 386, N-(2-aminoethyl)-N-(4-cyanophenyl)-3-[4-(trifluoromethyl)phenyl]imidazo[1,2-a]pyrazine-6-carboxamide] | > 10000 nM
11 | CN(C(=O)c1cn2c(-c3cc4ccccc4[nH]3)cnc2cn1)c1ccc(Cl)nc1 [Compound 387, N-(6-chloropyridin-3-yl)-3-(1H-indol-2-yl)-N-methylimidazo[1,2-a]pyrazine-6-carboxamide] | > 10000 nM
12 | CN(C)Cc1ccc(-c2cnc3cnc(C(=O)N(C)c4ccc(Cl)nc4)cn23)cc1 [Compound 388, N-(6-chloropyridin-3-yl)-3-{4-[(dimethylamino)methyl]phenyl}-N-methylimidazo[1,2-a]pyrazine-6-carboxamide] | 762 nM
13 | N#Cc1nc[nH]c1NC(=O)c1cn2c(-c3ccc(C(F)(F)F)cc3)cnc2cn1 [Compound 389, N-(4-cyano-1H-imidazol-5-yl)-3-[4-(trifluoromethyl)phenyl]imidazo[1,2-a]pyrazine-6-carboxamide] | 2000 nM
14 | Cc1cccnc1N(C)C(=O)c1cn2c(-c3ccc(C(F)(F)F)cc3)cnc2cn1 [Compound 390, N-methyl-N-(3-methylpyridin-2-yl)-3-[4-(trifluoromethyl)phenyl]imidazo[1,2-a]pyrazine-6-carboxamide] | 2650 nM
15 | CN(C(=O)c1cn2c(-c3cnc4c(cnn4C)c3)cnc2cn1)c1ccc(C#N)cc1 [Compound 391, N-(4-cyanophenyl)-N-methyl-3-{1-methyl-1H-pyrazolo[3,4-b]pyridin-5-yl}imidazo[1,2-a]pyrazine-6-carboxamide] | 2910 nM
16 | FC(F)(F)c1ccc(-c2cnc3cnc(CN4CCOCC4)cn23)cc1 [Compound 392, 4-({3-[4-(trifluoromethyl)phenyl]imidazo[1,2-a]pyrazin-6-yl}methyl)morpholine] | 3250 nM
17 | CN(C(=O)c1cn2c(-c3ccc(C(N)=O)nc3)cnc2cn1)c1ccc(C#N)cc1 [Compound 393, 5-{6-[(4-cyanophenyl)(methyl)carbamoyl]imidazo[1,2-a]pyrazin-3-yl}pyridine-2-carboxamide] | 3940 nM
18 | CN(C)c1ccc(N(C)C(=O)c2cn3c(-c4ccc(C(F)(F)F)cc4)cnc3cn2)cn1 [Compound 394, N-[6-(dimethylamino)pyridin-3-yl]-N-methyl-3-[4-(trifluoromethyl)phenyl]imidazo[1,2-a]pyrazine-6-carboxamide] | 4910 nM

Row | SMILES | EC50
19 | COc1ccc(N(C)C(=O)c2cn3c(-c4ccc(C(F)(F)F)cc4)cnc3cn2)nn1 [Compound 395, N-(6-methoxypyridazin-3-yl)-N-methyl-3-[4-(trifluoromethyl)phenyl]imidazo[1,2-a]pyrazine-6-carboxamide] | 5020 nM
20 | CN(C(=O)c1cn2c(-c3ccc4[nH]nc(N)c4c3)cnc2cn1)c1ccc(C#N)cc1 [Compound 396, 3-(3-amino-1H-indazol-5-yl)-N-(4-cyanophenyl)-N-methylimidazo[1,2-a]pyrazine-6-carboxamide] | 5720 nM
21 | NC(=O)C1CCCN(C(=O)c2cn3c(-c4ccc(C(F)(F)F)cc4)cnc3cn2)C1 (stereo not drawn) [Compound 397, 1-({3-[4-(trifluoromethyl)phenyl]imidazo[1,2-a]pyrazin-6-yl}carbonyl)piperidine-3-carboxamide] | 6550 nM
22 | CNc1ccc(-c2cnc3cnc(C(=O)N(C)c4ccc(Cl)nc4)cn23)cc1 [Compound 398, N-(6-chloropyridin-3-yl)-N-methyl-3-[4-(methylamino)phenyl]imidazo[1,2-a]pyrazine-6-carboxamide] | 6840 nM
23 | COc1ncc(N(C)C(=O)c2cn3c(-c4ccc(C(F)(F)F)cc4)cnc3cn2)cn1 [Compound 399, N-(2-methoxypyrimidin-5-yl)-N-methyl-3-[4-(trifluoromethyl)phenyl]imidazo[1,2-a]pyrazine-6-carboxamide] | 6980 nM
24 | CN(C(=O)c1cn2c(-c3ccc(NCCN4CCOCC4)nc3)cnc2cn1)c1ccc(C#N)cc1 [Compound 400, -(4-cyanophenyl)-N-methyl-3-(6-{[2-(morpholin-4-yl)ethyl]amino}pyridin-3-yl)imidazo[1,2-a]pyrazine-6-carboxamide] | 7850 nM
25 | CN(C(=O)c1cn2c(-c3ccc(C#N)nc3)cnc2cn1)c1ccc(C#N)cc1 [Compound 401, N-(4-cyanophenyl)-3-(6-cyanopyridin-3-yl)-N-methylimidazo[1,2-a]pyrazine-6-carboxamide] | > 10000 nM
26 | CN(C(=O)c1cn2c(-c3ccc(OC(C)(C)CN)cc3)cnc2cn1)c1ccc(C#N)cc1 [Compound 402, 3-{4-[(1-amino-2-methylpropan-2-yl)oxy]phenyl}-N-(4-cyanophenyl)-N-methylimidazo[1,2-a]pyrazine-6-carboxamide] | 3610 nM
27 | CN(C(=O)c1cn2c(C(=O)Nc3ccc(C(F)(F)F)cc3)cnc2cn1)c1ccc(Cl)nc1 [Compound 403, 6-N-(6-chloropyridin-3-yl)-6-N-methyl-3-N-[4-(trifluoromethyl)phenyl]imidazo[1,2-a]pyrazine-3,6-dicarboxamide] | > 5980 nM
28 | NC(=O)c1nc[nH]c1NC(=O)c1cn2c(-c3ccc(C(F)(F)F)cc3)cnc2cn1 [Compound 404, 5-C-3-[4-(trifluoromethyl)phenyl]imidazo[1,2-a]pyrazine-6-1H-imidazole-4,5-dicarboxamide] | > 7570 nM
29 | CC(c1ccc(Cl)cc1)N(C)C(=O)c1cn2c(-c3ccc(C(F)(F)F)cc3)cnc2cn1 (stereo not drawn) [Compound 405, N-[1-(4-chlorophenyl)ethyl]-N-methyl-3-[4-(trifluoromethyl)phenyl]imidazo[1,2-a]pyrazine-6-carboxamide] | > 8820 nM
30 | O=C(Nc1ccc(S(=O)(=O)Nc2nccs2)cc1)c1cn2c(-c3ccc(C(F)(F)F)cc3)cnc2cn1 [Compound 406, N-{4-[(1,3-thiazol-2-yl)sulfamoyl]phenyl}-3-[4-(trifluoromethyl)phenyl]imidazo[1,2-a]pyrazine-6-carboxamide] | > 8860 nM
31 | CNc1ccc(-c2cnc3cnc(C(=O)N(C)c4ccc(Cl)nc4)cn23)cn1 [Compound 407, N-(6-chloropyridin-3-yl)-N-methyl-3-[6-(methylamino)pyridin-3-yl]imidazo[1,2-a]pyrazine-6-carboxamide] | > 8970 nM
32 | CN(C(=O)c1cn2c(-c3ccc(NC(=O)C(C)(C)N)cc3)cnc2cn1)c1ccc(C#N)cc1 [Compound 408, 3-[4-(2-amino-2-methylpropanamido)phenyl]-N-(4-cyanophenyl)-N-methylimidazo[1,2-a]pyrazine-6-carboxamide] | > 9300 nM
33 | Cc1ccc(N(C)C(=O)c2cn3c(-c4ccc(OCCN)cc4)cnc3cn2)nc1 [Compound 409, 3-[4-(2-aminoethoxyl)phenyl]-N-methyl-N-(5-methylpyridin-2-yl)imidazo[1,2-a]pyrazine-6-carboxamide] | > 9340 nM
34 | CN(C(=O)c1cn2c(-c3ccc(-c4nnco4)cc3)cnc2cn1)c1ccc(Cl)nc1 [Compound 410, N-(6-chloropyridin-3-yl)-N-methyl-3-[4-(1,3,4-oxadiazol-2-yl)phenyl]imidazo[1,2-a]pyrazine-6-carboxamide] | > 10000 nM
35 | Cc1nc(C(=O)N2CCCc3cc(F)ccc32)cn2c(-c3ccc(C(F)(F)F)cc3)cnc12 [Compound 411, 6-fluoro-1-({8-methyl-3-[4-(trifluoromethyl)phenyl]imidazo[1,2-a]pyrazin-6-yl}carbonyl)-1,2,3,4-tetrahydroquinoline] | > 7570 nM
36 | CN(C(=O)c1cn2c(-c3ccc(C(F)(F)F)cc3)cnc2cn1)c1ccc(C2CCCC2)cn1 [Compound 412, N-(5-cyclopentylpyridin-2-yl)-N-methyl-3-[4-(trifluoromethyl)phenyl]imidazo[1,2-a]pyrazine-6-carboxamide] | 7880 nM
